In patent US3969529A, “Phenoxyacetic acid derivatives as diuretic agents” (C.E.R.P.H.A., priority 1969, dated 1976):

Key:
[1] = Acute toxicity in mice (mortality after 24 h intravenous, 48 h per os); conditions: mouse, in vivo; for LD50 at 24 h: intravenous, mortality after 24 hours; for LD50 at 48 h: po, per os, mortality after 48 hours
Protocol: The three compounds were administered in the usual way to lots of 10 male mice of average weight 20 gm. Mortality was assessed after 24 hours for the intravenous toxicity and after 48 hours for toxicity per os.

dogs = test: Tolerance in dogs, 5 days; type: in vivo; conditions: 50 to 200 mg/kg via the digestive tract, three dogs
mice = test: Diuretic activity in mice; type: in vivo
Protocol: The three compounds CE 3598, CE 3624, CE 3649 can be shown to be diuretic at doses of from 1 - 50 mg/kg for the first.

[2] = test system: dogs anaesthetized with mebubarbital; test: Diuretic activity in dogs anaesthetized with mebubarbital; type: in vivo
Protocol: The doses injected were of the order of 5 - 30 mg/kg. In most cases, diuresis was decupled for more than 2 hours.
The size of the increase may reach 6 to 7 times, even 10 times, the base diuresis.
In the case of intraduodenal injection or administration per os, the active doses are relatively the same as by intravenous administration.

non-anaesthetized dogs = test: Diuretic activity in non-anaesthetized dogs after hydration; type: in vivo
Protocol: After hydration with 500 ml physiological water and calculation of the diuresis for 2 hours, CE 3624, CE 3649 and CE 3598 were administered per os at doses of from 10 to 100 mg/kg.
For CE 3624 at 20 mg/kg, the diuresis was quintupled for 3 hours; the same result was obtained at 10 mg/kg. For CE 3649, at the same doses, the diuresis was only doubled. The doses of CE 3598 administered per os were 25,50 and 100 mg/kg. The increase in diuresis was effective during the first hour, and still notable 3 hours after administration of the product.

[3] = per os, 10 to 100 mg/kg, after hydration with 500 ml physiological water

O=C(O)COc1ccc(C(=O)c2cccs2)c(Cl)c1Cl [CE 3624, 4-(2-thienylketo) 2,3-dichloro phenoxyacetic acid]
LD50 at 24 h [1]: 225 mg/kg | LD50 at 48 h [1]: 1280 mg/kg | symptoms indicating injurious activity (dogs): no symptoms which would indicate any injurious activity | diuretic activity (mice): diuretic | increase in diuresis (mice; 25 mg/kg): doubled | increase in diuresis (mice; 50 mg/kg): quintupled | diuretic action ([2]; injected, of the order of 5 - 30 mg/kg): extremely substantial and precocious | duration of decupled diuresis ([2]; injected, of the order of 5 - 30 mg/kg, in most cases): more than 2 hours | increase in diuresis ([2]; injected, of the order of 5 - 30 mg/kg, in most cases, for more than 2 hours): decupled | increase in diuresis (non-anaesthetized dogs; per os, 10 mg/kg): quintupled | duration of quintupled diuresis (non-anaesthetized dogs; per os, 20 mg/kg): 3 h | increase in diuresis (non-anaesthetized dogs; per os, 20 mg/kg, for 3 hours): quintupled | increase in diuresis (non-anaesthetized dogs; [3]): strongly increased

Cc1ccc(C(=O)c2ccc(OCC(=O)O)c(Cl)c2Cl)s1 [CE 3649, 4-[2(5-methylthienyl)keto] 2,3-dichloro phenoxyacetic acid]
LD50 at 24 h [1]: 580 mg/kg | LD50 at 48 h [1]: 2900 mg/kg | symptoms indicating injurious activity (dogs): no symptoms which would indicate any injurious activity | diuretic activity (mice): diuretic | diuretic activity relative to CE 3624 (mice): a quarter of that of CE 3624 | increase in diuresis (non-anaesthetized dogs; [3]): strongly increased | increase in diuresis (non-anaesthetized dogs; per os, same doses as CE 3624 (20 and 10 mg/kg)): only doubled

O=C(O)COc1ccc(C(=O)c2ccco2)c(Cl)c1Cl [CE 3598, 4-(2-furylketo) 2,3-dichloro phenoxyacetic acid]
LD50 at 24 h [1]: 450 mg/kg | LD50 at 48 h [1]: 1500 mg/kg | symptoms indicating injurious activity (dogs): no symptoms which would indicate any injurious activity | diuretic activity (mice): diuretic | increase in diuresis 2 hours after injection ([2]; intravenous): still perceptible | dose provoking substantial diuretic action ([2]; intravenous, first 15 minutes): ~10 mg/kg | size of the increase over base diuresis, maximum ([2]; intravenous, may reach even): 10 times | diuretic action in the first 15 minutes ([2]; intravenous, of the order of 10 mg/kg): substantial diuretic action | increase in diuresis (non-anaesthetized dogs; [3]): strongly increased | increase in diuresis 3 hours after administration (non-anaesthetized dogs; per os, 25, 50 and 100 mg/kg): still notable | increase in diuresis during the first hour (non-anaesthetized dogs; per os, 25, 50 and 100 mg/kg): effective
